# Experiments:
# Ostertagia ostertagi = assay: Method H: cattle in vivo, Ostertagia ostertagi; conditions: compound alone, dose as low as 3 mg/kg administered orally
# Source text: (§1) Method H: Screening Method to Test Activity of Compounds Against Haemonchus placei, Ostertagia ostertagi, Trichostrongylus axei, Cooperia punctata, Bunostomum phlebotomum, Oesophagostomum radiatum, Dictyocaulus viviparus, and Nematodirus helvetianus In Vivo in Cattle.
# (§2) Calves were challenged intra-aurally with larvae from Bunostomum phlebotomum (500-1000 L3 per animal) on Dat −56; and orally with larvae from Oesophagostomum radiatum (1,000-2,000 infective L3 per animal) on Dat −49, Nematodirus helvetianus (3,000-6,000 infective L3 per animal) on Dat −28, Haemonchus placei (5,000-7,000 infective L3 per animal) on Dat −28, Dictyocaulus viviparus (1,000-2,000 infective L3 per animal) on Dat −28, Ostertagia ostertagi (10,000-20,000 infective L3 per animal) on Dat −21, Trichostrongylus axei (10,000-20,000 infective L3 per animal) on Dat −21, Cooperia punctata (10,000-20,000 infective L3 per animal) on Dat −28, and Cooperia oncophora (10,000-20,000 infective L3 per animal) on Dat −21. The test compound was administered alone at a dose of 3 or 6 mg/kg orally or subcutaneously or subcutaneously at a dose of 6 mg/kg in combination with ivermectin at a dose of 50 mcg/kg. […] Efficacy was calculated for each nematode species by calculating the percent efficacy as 100[(C−T)/C], where C is the mean count among untreated controls and T is the count of the treated animals. […]
# Toxocara cati = assay: Method G: anthelmintic efficacy against induced infections of adult nematodes in cats, Toxocara cati; assay type: in vivo; conditions: oral, once, doses as low as 1 mg/kg
# Description: (§3) Method G: Evaluation of Anthelmintic Efficacy Against Induced Infections of Adult Nematodes in Cats
# (§4) Cats were inoculated on three consecutive days with an aliquot of infective eggs of Toxocara cati (days −63, −62, −61) and Ancylostoma tubaeforme (days −28, −27, −26) from one bulk solution each. The inoculation schedule was designed such that nematodes were adult on day 0. The approximate number of infective eggs/larvae given was recorded. Fecal samples were collected between day −7 and day −1 and examined to confirm the presence of infections, and are reported as eggs/gram of feces. Each formulation was orally administered once on day 0. On day 8, the cats were humanely euthanized. The stomach, cecum, small and large intestines were removed and the total content was retained for parasite recovery. Parasites were collected and identified. Efficacy was determined for each nematode species by calculating the percent efficacy as 100[(C−T)/C], where C is the mean count among untreated controls and T is the count of the treated animals.
# Haemonchus contortus [1] = assay: Method A: screening of activity against Haemonchus contortus L1 larvae in microtitre plate (development to L3 / motility)
# Source text: Method A: Screening Method to Test Activity of Compounds Against Haemonchus contortus.
# Nematodirus helvetianus = assay: Method H: cattle in vivo, Nematodirus helvetianus
# Source text: as §1
# (§5) Calves were challenged intra-aurally with larvae from Bunostomum phlebotomum (500-1000 L3 per animal) on Dat −56; and orally with larvae from Oesophagostomum radiatum (1,000-2,000 infective L3 per animal) on Dat −49, Nematodirus helvetianus (3,000-6,000 infective L3 per animal) on Dat −28, Haemonchus placei (5,000-7,000 infective L3 per animal) on Dat −28, Dictyocaulus viviparus (1,000-2,000 infective L3 per animal) on Dat −28, Ostertagia ostertagi (10,000-20,000 infective L3 per animal) on Dat −21, Trichostrongylus axei (10,000-20,000 infective L3 per animal) on Dat −21, Cooperia punctata (10,000-20,000 infective L3 per animal) on Dat −28, and Cooperia oncophora (10,000-20,000 infective L3 per animal) on Dat −21. The test compound was administered alone at a dose of 3 or 6 mg/kg orally or subcutaneously or subcutaneously at a dose of 6 mg/kg in combination with ivermectin at a dose of 50 mcg/kg. For oral administration, test compounds were formulated at a concentration of 10 mg/mL in DMSO/Corn oil (1:1). For subcutaneous administration, test compounds were formulated in propylene glycol/glycerol formal (60:40). All treatments were administered at Day 0. At necropsy on Day 14/15, the abomasa, small intestine and large intestine were removed and processed for parasite recovery. Nematode counts were conducted on appropriate aliquots. Efficacy was calculated for each nematode species by calculating the percent efficacy as 100[(C−T)/C], where C is the mean count among untreated controls and T is the count of the treated animals. Compound number 3.024 provided >95% efficacy against Haemonchus placei, Ostertagia ostertagi, Trichostrongylus axei, Cooperia punctata, Oesophagostomum radiatum and Nematodirus helvetianus at a dose as low as 3 mg/kg administered orally. […]
# Haemonchus contortus [2] = assay: Method B: activity against Haemonchus contortus in vivo in Mongolian gerbil; parameters: species or system Mongolian gerbil (Meriones unguiculatus); conditions: po, 72 h, oral gavage, dose 0.1 mg/kg, read-out: reduction in nematode infection
# Description: Method B: Screening Method to Test Activity of Compounds Against Haemonchus contortus In Vivo in Mongolian Gerbil (Meriones unguiculatus).
# Mongolian gerbils, at least five weeks old, were immunosuppressed and artificially infected with ca. 1000 ensheathed Haemonchus contortus third instar larvae. Six days after infection, the Mongolian gerbils were treated by oral gavage with the test compounds, dissolved in a mixture of 2 parts DMSO and 1 part polyethylene glycol (PEG400), at doses of 100 mg/kg and dissolved in pure polyethylene glycol (PEG400) at doses of 10 and 1 mg/kg. Mongolian gerbils treated only with the placebo (2 parts DMSO and 1 part PEG400 or pure PEG400) served as controls. On day 9 (3 days after treatment) the jirds were euthanized and necropsied for recovery of parasites from the stomach. Efficacy was calculated as the average % reduction in the number of worms in each test group compared with the average number of worms from the control group. […] Compound numbers 1.001, 1.008, 1.012, 1.013 and 1.014 provided at least 95% reduction in nematode in Mongolian gerbils treated by oral gavage with test article at a dose of 100 mg/kg. Compound numbers 1.012, 1.033, 1.064, 2.008, 2.037, 2.038, 2.040, 2.041, 3.001 provided at least 95% reduction in nematode infection at a dose of 10 mg/kg. Compound numbers 1.094, 1.096, 2.048, 3.001, 3.007 and 3.009, provided at least 95% reduction in nematode infection at a dose of 1 mg/kg. Compound numbers 3.006, 3.017 and 3.019 provided at least 95% reduction in nematode infection at a dose of 0.5 mg/kg. Compound numbers 3.005, 3.011 and 3.012 provided at least 95% reduction in nematode infection at a dose of 0.3 mg/kg. The eutomer compound number 3.024 provided at least 95% reduction in nematode infection at a dose of 0.1 mg/kg.
# Caenorhabditis elegans = assay: Inhibition of the motility of Caenorhabditis elegans
# [3] = tested on: ivermectin-resistant Ostertagia circumcincta; assay: Method I: sheep in vivo, ivermectin-resistant Ostertagia circumcincta; conditions: 1.5 mg/kg or 3 mg/kg orally
# Source text: (§6) Method I: Screening Method to Test Activity of Compounds Against Ivermectin-Resistant Haemonchus contortus, Ostertagia circumcincta, and Trichostrongylus colubriformis In Vivo in Sheep.
# (§7) Sheep were challenged orally with infective 3rd stage larvae (L3) of Ostertagia circumcincta (˜3,000-6,000 infective L3 per animal) on Dat −28, Haemonchus contortus (˜2,000-4,000 infective L3 per animal) on Dat −25, and Trichostrongylus colubriformis (˜3,000-6,000 infective L3 per species per animal) on Dat −23. The inoculation schedule was designed so that nematodes were expected to be in the adult stage on Day 0. Test compounds were dissolved in a mixture of DMSO/Corn oil (1:1) at a concentration of 10 mg/mL. All treatments were administered orally once on Day 0. At sacrifice on Day 14 the abomasum, small intestine and large intestine (including cecum) were removed. Nematode counts were conducted on 10% (abomasal and small intestinal content, abomasal soak) or 20% aliquots (large intestinal content). All nematodes were speciated, or assigned to species based on location of recovery (adult females, fourth-stage larvae) for a total count per species. Efficacy was calculated as the % reduction in the mean number of worms in each test group compared with the mean number of worms recovered from the control group. […]
# Trichostrongylus axei = assay: Method H: cattle in vivo, Trichostrongylus axei; conditions: compound alone, dose as low as 3 mg/kg administered orally
# Source text: as §1, §2
# Ancylostoma tubaeforme = assay: Method G: anthelmintic efficacy against induced infections of adult nematodes in cats, Ancylostoma tubaeforme; assay type: in vivo; conditions: oral, once, doses as low as 1 mg/kg
# Description: as §3, §4
# [4] = tested on: ivermectin-resistant Haemonchus contortus; assay: Method I: sheep in vivo, ivermectin-resistant Haemonchus contortus; conditions: 1.5 mg/kg or 3 mg/kg orally
# Source text: as §6, §7
# Haemonchus placei = assay: Method H: cattle in vivo, Haemonchus placei
# Source text: as §1, §5
# Cooperia punctata = assay: Method H: cattle in vivo, Cooperia punctata; conditions: compound alone, dose as low as 3 mg/kg administered orally
# Source text: as §1, §2
# [5] = tested on: ivermectin-resistant Trichostrongylus columbriformis; assay: Method I: sheep in vivo, ivermectin-resistant Trichostrongylus colubriformis; conditions: 1.5 mg/kg or 3 mg/kg orally
# Source text: as §6, §7
# Oesophagostomum radiatum = assay: Method H: cattle in vivo, Oesophagostomum radiatum; conditions: compound alone, dose as low as 3 mg/kg administered orally
# Source text: as §1, §2
# [6] = tested on: Ivermectin-Resistant Haemonchus contortus, Ostertagia circumcincta, and Trichostrongylus colubriformis; assay: Method I: activity against ivermectin-resistant nematodes in vivo in sheep (all species tested); conditions: oral, once, doses as low as 1.5 mg/kg
# Source text: as §6, §7
# [7] = compound alone, dose as low as 3 mg/kg administered orally
# [8] = subcutaneous, 6 mg/kg in combination with ivermectin 50 μg/kg (0.05 mg/kg)
smiles,measurement,setting,value
"C[C@](C#N)(Cn1cc2ncc(Br)cc2n1)NC(=O)c1ccc(OC(F)(F)F)cc1 [Compound 3.024, (+)-N-[2-(6-Bromo-2H-pyrazolo[4,3-b]pyridin-2-yl)-1-cyano-1-methylethyl]-4-trifluoromethoxybenzamide]",efficacy against Ostertagia ostertagi,Ostertagia ostertagi,> 95%
same,efficacy against Toxocara cati,Toxocara cati,> 94%
same,inhibition at 0.0025 ppm,"Haemonchus contortus [1]; Haemonchus contortus, 96 h, test concentration 0.0025 ppm, 4 days assessment",≥ 90%
same,"potency at inhibiting the motility of Haemonchus contortus larvae, eutomer relative to distomer",Haemonchus contortus [1]; relative to the distomer (compound 3.025),greater than 100 times
same,efficacy against Nematodirus helvetianus,Nematodirus helvetianus; [7],> 95%
same,efficacy against Nematodirus helvetianus,Nematodirus helvetianus; [8],greater than 95%
same,inhibition in vivo at 0.1 mg/kg,Haemonchus contortus [2],≥ 95%
same,"potency at inhibiting the motility of Caenorhabditis elegans, relative to compound 3.025",Caenorhabditis elegans,greater than 100 times
same,efficacy against ivermectin-resistant Ostertagia circumcincta,[3],greater than 95%
same,efficacy against Trichostrongylus axei,Trichostrongylus axei,> 95%
same,efficacy against Ancylostoma tubaeforme,Ancylostoma tubaeforme,> 94%
same,efficacy against ivermectin-resistant Haemonchus contortus,[4],greater than 95%
same,efficacy against Haemonchus placei,Haemonchus placei; [7],> 95%
same,efficacy against Haemonchus placei (ivermectin-resistant strain),Haemonchus placei; [8],greater than 95%
same,efficacy against Cooperia punctata,Cooperia punctata,> 95%
same,efficacy against ivermectin-resistant Trichostrongylus columbriformis,[5],greater than 95%
same,efficacy against Oesophagostomum radiatum,Oesophagostomum radiatum,> 95%
same,efficacy against all species of the nematodes tested (ivermectin-resistant),[6],> 95%
